# From ChEMBL document CHEMBL1201862, “PubChem BioAssay data set” (2004)
# Activity calls are given as the source filed them.
# Experiments:
# [1] = growth suppression of PTEN-null colon cells, dose response, cell-based, HCT116 PTEN knockout (AID 1047); assay type: functional;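 note: HCT116 colon tumor cells with PTEN knocked out; cells exposed to compound for 60 hours before readout; potency for loss of cell viability measured by luminescence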
# Protein RecA = target: T1, Protein RecA (Mycobacterium tuberculosis, UniProt P9WHJ3); assay: Fluorescence Cell-Free Homogeneous Dose Retest to Identify Inhibitors of RecA-Intein Splicing Activity. [Related pubchem assays (depositor defined):AID2097, AID2223, AID489010, AID492950]; assay type: functional
# T1 sequence (P9WHJ3 whole entry): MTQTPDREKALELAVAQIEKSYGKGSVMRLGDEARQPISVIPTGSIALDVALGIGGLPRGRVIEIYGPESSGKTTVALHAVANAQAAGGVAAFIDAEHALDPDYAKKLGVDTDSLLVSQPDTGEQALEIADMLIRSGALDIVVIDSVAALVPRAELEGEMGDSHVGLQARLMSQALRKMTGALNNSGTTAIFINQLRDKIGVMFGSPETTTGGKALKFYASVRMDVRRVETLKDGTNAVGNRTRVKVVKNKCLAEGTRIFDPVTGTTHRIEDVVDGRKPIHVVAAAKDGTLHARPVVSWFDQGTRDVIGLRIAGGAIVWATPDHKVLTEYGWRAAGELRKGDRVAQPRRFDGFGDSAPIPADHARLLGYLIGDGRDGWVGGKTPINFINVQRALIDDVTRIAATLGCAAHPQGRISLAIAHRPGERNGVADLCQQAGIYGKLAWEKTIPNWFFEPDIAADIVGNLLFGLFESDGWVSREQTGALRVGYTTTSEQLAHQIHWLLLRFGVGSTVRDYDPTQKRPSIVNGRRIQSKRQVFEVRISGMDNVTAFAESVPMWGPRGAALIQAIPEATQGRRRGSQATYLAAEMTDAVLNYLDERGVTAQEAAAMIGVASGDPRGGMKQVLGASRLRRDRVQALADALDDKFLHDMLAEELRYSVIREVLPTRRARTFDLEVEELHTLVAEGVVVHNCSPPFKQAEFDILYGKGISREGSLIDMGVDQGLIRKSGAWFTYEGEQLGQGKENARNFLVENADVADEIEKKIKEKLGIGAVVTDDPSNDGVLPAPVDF
smiles,measurement,setting,value
Cc1oc2c(c1C(=O)N1CCC(C)CC1)C(=O)c1ccccc1C2=O,EC50,[1],1920 nM (active)
same,EC50,Protein RecA,1090 nM (active)
